Laboratory results published in article PMC7767178 (International Journal of Molecular Sciences, 2020).
Where two headings read alike, the source gives them in different places. Positions of bridges follow the written chain, without caps; N, C: chain ends. Residues, ends and D or L forms follow the SMILES beside them.

Assays:
A. veronii CL0901 = test system: A. veronii CL0901
Description: (§1) Briefly, the tested strains including Gram-negative bacteria, Gram-positive bacteria, and fungi were cultured to the logarithmic growth phase, diluted to 10^5 CFU/mL, and added into 96-well plates (90 μL/well). Two-fold serial dilutions of peptides or antibiotics dissolved in PBS were added to each well (10 μL/well). […] All experiments were repeated three times.

[1] = test system: Aeromonas veronii ACCC61732
Description: as §1

[2] = test system: Pseudomonas aeruginosa CICC21630
Description: as §1

S. aureus ATCC25923 = test system: S. aureus ATCC25923
Description: as §1

S. aureus ATCC546 = test system: S. aureus ATCC546
Description: as §1

S. hyicus NCTC10350 = test system: S. hyicus NCTC10350
Description: as §1

[3] = test system: Salmonella typhimurium ATCC14028; type: cell-based
A. veronii ACCC61732 [4] = assay: ATP release, BacTiter-Glo; type: cell-based; conditions: 8×, 16× and 32× MIC, 60 min, 37 °C, luminescence, n = 3
Description: The assay was performed for three biological replicates at 37 °C, with luminescence recorded using a Tecan Infinite M1000 Pro plate reader. The fold reduction of ATP was calculated as: Fold reduction ATP = 1 − (Ltreat − Lmedia/Lcontrol − Lmedia), where Ltreat is the luminescence of treated cells, Lmedia is the luminescence of MHB without cells, and Lcontrol is the luminescence of untreated cells. Resultant graphs show mean (n = 3) and SEM for each data point, prepared in Prism 7 [46].

[5] = test system: A. veronii ACCC61732 genomic DNA; assay: CD spectra of genomic DNA with peptides; type: binding; conditions: mass ratios 2.5 and 10.0, 10 min, room temperature
Description: CD spectra were performed to examine the secondary structure of genomic DNA from A. veronii ACCC61732 after incubation with peptides. […] The mixtures were loaded into a cuvette of 1.0-mm path length and scanned from 190 to 330 nm at 25 °C using a Pistar π-180 CD spectrometer (Applied Photophysics Ltd., Surry, UK).

[6] = test system: A. veronii ACCC61732 biofilms; assay: Mouse model of catheter-associated biofilm infection, bacteria in catheter; type: in vivo, ICR mice; conditions: 5 μmol/kg peptide or CIP 24 h after catheter implantation, catheters collected after seven days, six mice per group
Description: Briefly, the catheter was cut into 1 cm segments; each piece was sterilized with 70% ethanol and then dried by air. Bacterial biofilms were developed on the catheter by placing individual segments into tubes containing 1.0 mL of a cell suspension (1 × 10^8 CFU/mL) in TSB. After incubation for 24 h at 37 °C, colonized catheters were recovered aseptically and rinsed with PBS to remove unbound bacteria. ICR female mice (20 ± 5 g) were anesthetized with isoflurane; the flanks were shaved and the skin was cleansed with alcohol. […] The incision was then covered with intact skin and closed with surgical suture line and the skin was disinfected. […] The untreated mice were used as the negative control and the mice with sterile catheter were used as the blank control. The mice were anesthetized and sacrificed after seven days. The catheters in the back of the mice were collected and thoroughly shaken in sterile PBS.

A. veronii ACCC61732 [7] = assay: Mouse peritonitis model, bacterial translocation to organs; type: in vivo, ICR mice; conditions: 5 μmol/kg, 24 h post-treatment, colony counting
Description: (§2) Sera and organs (livers, kidneys, spleens, and lungs) were collected from the mice at 24 h post-treatment. The organs were homogenized in sterile PBS to evaluate bacterial translocation by colony counting. The levels of cytokines (TNF-α, IL-1β, IL-6, and IL-10) in sera were detected using the ELISA kits.

IL-10 = assay: Serum cytokine, ELISA, peritonitis model; type: in vivo; conditions: 5 μmol/kg, 24 h after treatment, range over mice
Description: as §2

IL-1β = assay: Serum cytokine, ELISA, peritonitis model; type: in vivo; conditions: 5 μmol/kg, 24 h after treatment, range over mice
Description: as §2

IL-6 = assay: Serum cytokine, ELISA, peritonitis model; type: in vivo; conditions: 5 μmol/kg, 24 h after treatment, range over mice
Description: as §2

TNF-α = assay: Serum cytokine, ELISA, peritonitis model; type: in vivo; conditions: 5 μmol/kg, 24 h after treatment, range over mice
Description: as §2

A. veronii ACCC61732 [8] = assay: Organ injury in peritonitis model, histology; type: in vivo, mice; conditions: peptides 5 μmol/kg, CIP 1 μmol/kg
Description: Livers, kidneys, spleens, and lungs were removed from mice at 24 h and five days post treatment to evaluate the organ injury. After washing with PBS, the organs were fixed in 4% paraform-aldehyde for 24 h at 4 °C, dehydrated by a graded series of ethanol (75‒95%), and infiltrated with xylene. The organs were then embedded in paraffin wax, sectioned, and stained with hematoxylin and eosin. Finally, the tissue samples were fixed and observed by the light microscope. The CIP-treated mice served as the positive control and the PBS group served as the negative control.

mouse erythrocytes = assay: Hemolysis; type: cell-based; conditions: 256 μg/mL; 8% mouse erythrocyte suspension, 37 °C, 1 h, absorbance 540 nm
Description: To determine the hemolysis of peptides, eyeball blood was collected from 6-week-old SPF ICR mice. The blood was centrifuged at 4 °C for 10 min (1500 rpm), washed three times with 0.9% physiological saline, and diluted to 8% suspension. […] Red blood cell suspensions and peptide solutions (100 μL) were mixed in 96-well plates, centrifuged at 4 °C for 5 min (1500 rpm), and incubated at 37 °C for 1 h. The supernatant was added into a 96-well plate and the UV absorbance was measured at 540 nm using a microplate reader. Physiological saline and 0.1% Triton X-100 were used as 0% and 100% hemolytic controls, respectively. The hemolytic ratio was calculated as follows: Hemolysis (%) = [(Abspeptide − Abssaline)/(Abs0.1%Triton X-100 − Abssaline)] × 100% [38].

Salmonella = conditions: range over the strains of Table 2
trypsin = conditions: pH 8
[9] = A. veronii CL0901, broth dilution, 37 °C, 16–18 h, three experiments
[10] = Aeromonas veronii ACCC61732 (MDR), broth dilution, 37 °C, 16–18 h, three experiments
[11] = Pseudomonas aeruginosa CICC21630, broth dilution, 37 °C, 16–18 h, three experiments
[12] = S. aureus ATCC25923, broth dilution, 37 °C, 16–18 h, three experiments
[13] = S. aureus ATCC546, broth dilution, 37 °C, 16–18 h, three experiments
[14] = S. hyicus NCTC10350, broth dilution, 37 °C, 16–18 h, three experiments
[15] = Salmonella typhimurium ATCC14028, broth dilution, 37 °C, 16–18 h, three experiments

SMILES	MIC (A. veronii CL0901)	MIC (A. veronii CL0901; [9])	MIC [1, 10]	MIC ([2]; CICC21630)	MIC [2, 11]	MIC (S. aureus ATCC25923; ATCC25923)	MIC (S. aureus ATCC25923; [12])	MIC (S. aureus ATCC546; ATCC546)	MIC (S. aureus ATCC546; [13])	MIC (S. hyicus NCTC10350; NCTC10350)	MIC (S. hyicus NCTC10350; [14])	MIC [3, 15]	effect on CD spectrum of genomic DNA [5]	decrease of bacterial cells in the catheter [6]	reduction of bacteria in kidneys (A. veronii ACCC61732 [7])	reduction of bacteria in livers (A. veronii ACCC61732 [7])	reduction of bacteria in lungs (A. veronii ACCC61732 [7])	reduction of bacteria in spleens (A. veronii ACCC61732 [7])	serum level of IL-10 (IL-10)	serum level of IL-1β (IL-1β)	also measured
CC(C)[C@@H]1NC(=O)CNC(=O)[C@H](CC(N)=O)NC(=O)[C@H](CCCNC(=N)N)NC(=O)[C@H](Cc2ccc(O)cc2)NC(=O)[C@H](C(C)C)NC(=O)[C@@H](NC(=O)[C@@H](NC(=O)[C@H](CC(N)=O)NC(=O)[C@H](Cc2c[nH]c3ccccc23)NC(=O)[C@H](C)NC(=O)[C@H](Cc2ccccc2)NC(=O)CN)C(C)C)CSSC[C@@H](C(=O)N[C@@H](Cc2cnc[nH]2)C(=O)N[C@@H](CCCNC(=N)N)C(=O)N[C@@H](CCCNC(=N)N)C(=O)N[C@@H](C)C(=O)N[C@@H](CC(N)=O)C(N)=O)NC(=O)[C@H](C(C)C)NC(=O)[C@H](CCCNC(=N)N)NC1=O [N6NH2]	6.46 µM	16 µg/mL	4 µg/mL	25.8 µM	64 µg/mL	12.9 µM	32 µg/mL	6.46 µM	16 µg/mL	12.9 µM	32 µg/mL	4 µg/mL	do not affect the double helix of genomic DNA	41.48%	80.52%	72.94%	71.89%	77.86%	17.02 to 20.87 pg/mL	6.06 to 10.82 pg/mL	ATP release (A. veronii ACCC61732 [4]): 56.07–90.00%; serum level of IL-6 (IL-6): 47.22 to 108.59 pg/mL; serum level of TNF-α (TNF-α): 40.65 to 55.67 pg/mL; effect on injury of liver, spleen, kidney and lung (A. veronii ACCC61732 [8]): remarkably alleviated the injury of the liver and spleen
CC(C)[C@H](N)C(=O)N[C@@H](Cc1ccccc1)C(=O)N[C@@H](C)C(=O)N[C@@H](Cc1c[nH]c2ccccc12)C(=O)N[C@@H](CC(N)=O)C(=O)N[C@H](C(=O)N[C@H]1CSSC[C@@H](C(=O)N[C@@H](Cc2c[nH]cn2)C(=O)N[C@@H](CCCNC(=N)N)C(=O)N[C@@H](CCCNC(=N)N)C(=O)N[C@@H](C)C(=O)N[C@@H](CC(N)=O)C(N)=O)NC(=O)[C@H](C(C)C)NC(=O)[C@H](CCCNC(=N)N)NC(=O)[C@H](C(C)C)NC(=O)[C@H](C(C)C)NC(=O)[C@H](CC(N)=O)NC(=O)[C@H](CCCNC(=N)N)NC(=O)[C@H](Cc2ccc(O)cc2)NC(=O)[C@H](C(C)C)NC1=O)C(C)C [V112N6NH2] (H-VFAWNVCVYRNVVRVCHRRAN-NH2; disulfide 7-16 (inferred))	12.51 µM	32 µg/mL	16 µg/mL	12.5 µM	32 µg/mL	12.5 µM	32 µg/mL	6.25 µM	16 µg/mL	25.01 µM	64 µg/mL	16 µg/mL	do not affect the double helix of genomic DNA	55.29%	63.42%	52.71%	83.57%	63.87%	16.48 to 19.60 pg/mL	16.41 to 24.86 pg/mL	MIC [1]: 6.25 µM; MIC ([3]; ATCC14028): 6.25 µM; hemolysis (mouse erythrocytes): 4.59%; serum level of IL-6 (IL-6): 133.08 to 150.00 pg/mL; serum level of TNF-α (TNF-α): 52.05 to 59.01 pg/mL; effect on injury of liver, spleen, kidney and lung (A. veronii ACCC61732 [8]): significantly less damaged; MIC values against Salmonella (Salmonella): 0.78 to 6.25 µM; MIC after trypsin treatment (trypsin): lost their activity
